What all share (type): functional
The test system of assay [1] is Plutella xylostella. The assay can be described thus: Antifeedant activity against third-instar larval stage of Plutella xylostella (diamondback moth) infested compound-treated leaf assessed as reduction in feeding damage at 3341 mg a.i/L after 48 hr by leaf disk assay relative to untreated control. Details: scale not given: the % may be the effect or the level left.

The subject of assay [2] is Plutella xylostella. The assay can be described thus: Antifeedant activity against third-instar larval stage of Plutella xylostella (diamondback moth) infested compound-treated leaf assessed as time required to stop feeding at 3341 mg a.i/L after 48 hr by leaf disk assay (reference value: > 2880 min).
The subject of assay [3] is Trichoplusia ni. As to the kind of experiment: Antifeedant activity against third-instar larval stage of Trichoplusia ni (cabbage looper) infested compound-treated leaf assessed as time required to stop feeding at 3341 mg a.i/L after 48 hr by leaf disk assay (reference value: > 2880 min).
Assay [4] has as its system Spodoptera exigua. The assay can be described thus: Antifeedant activity against third-instar larval stage of Spodoptera exigua infested compound-treated leaf assessed as time required to stop feeding at 3341 mg a.i/L after 48 hr by leaf disk assay (reference value: > 2880 min).
Assay [5] concerns Spodoptera exigua. As to the kind of experiment: Antifeedant activity against third-instar larval stage of Spodoptera exigua infested compound-treated leaf assessed as reduction in feeding damage at 3341 mg a.i/L after 48 hr by leaf disk assay relative to untreated control. Details: scale not given: the % may be the effect or the level left.
Assay [6] deals with Helicoverpa zea. As to the kind of experiment: Antifeedant activity against third-instar larval stage of Helicoverpa zea (corn earworm) infested compound-treated leaf assessed as time required to stop feeding at 3341 mg a.i/L after 48 hr by leaf disk assay (reference value: > 2880 min).
Assay [7] concerns Trichoplusia ni. The assay can be described thus: Antifeedant activity against third-instar larval stage of Trichoplusia ni (cabbage looper) infested compound-treated leaf assessed as reduction in feeding damage at 3341 mg a.i/L after 48 hr by leaf disk assay relative to untreated control. Details: scale not given: the % may be the effect or the level left.
Assay [8] concerns Helicoverpa zea. The assay can be described thus: Antifeedant activity against third-instar larval stage of Helicoverpa zea (corn earworm) infested compound-treated leaf assessed as reduction in feeding damage at 3341 mg a.i/L after 48 hr by leaf disk assay relative to untreated control. Also on record: scale not given: the % may be the effect or the level left.
The test system of assay [9] is Trichoplusia ni. As to the kind of experiment: Antifeedant activity against third-instar larval stage of Trichoplusia ni (cabbage looper) infested compound-treated leaf assessed as reduction in feeding damage at 187 mg a.i/L after 48 hr by leaf disk assay relative to untreated control. Details: scale not given: the % may be the effect or the level left.
Assay [10] concerns Trichoplusia ni. The assay can be described thus: Antifeedant activity against third-instar larval stage of Trichoplusia ni (cabbage looper) infested compound-treated leaf assessed as time required to stop feeding at 187 mg a.i/L after 48 hr by leaf disk assay (reference value: > 2880 min).
The subject of assay [11] is Spodoptera exigua. As to the kind of experiment: Antifeedant activity against third-instar larval stage of Spodoptera exigua infested compound-treated leaf assessed as time required to stop feeding at 187 mg a.i/L after 48 hr by leaf disk assay (reference value: > 2880 min).
The subject of assay [12] is Spodoptera exigua. The assay can be described thus: Antifeedant activity against third-instar larval stage of Spodoptera exigua infested compound-treated leaf assessed as reduction in feeding damage at 187 mg a.i/L after 48 hr by leaf disk assay relative to untreated control. Also on record: scale not given: the % may be the effect or the level left.
For assay [13], the system named is Helicoverpa zea. The assay can be described thus: Antifeedant activity against third-instar larval stage of Helicoverpa zea (corn earworm) infested compound-treated leaf assessed as time required to stop feeding at 187 mg a.i/L after 48 hr by leaf disk assay (reference value: > 2880 min).
Assay [14] concerns Helicoverpa zea. The assay can be described thus: Antifeedant activity against third-instar larval stage of Helicoverpa zea (corn earworm) infested compound-treated leaf assessed as reduction in feeding damage at 187 mg a.i/L after 48 hr by leaf disk assay relative to untreated control. Details: scale not given: the % may be the effect or the level left.

On to `CNC(=O)ON=C(C)SC` [METHOMYL], for which the Activity was determined as 98.5% in the assay on Plutella xylostella [1], 99.8% in the assay with Spodoptera exigua [5], 99.9% with Trichoplusia ni [7] and 99.7% with Helicoverpa zea [8]. Further, the Time with Plutella xylostella [2] is given as 3.6 min; in the assay on Trichoplusia ni [3], 4.2 min; with Spodoptera exigua [4] it was 5.9 min; in the assay on Helicoverpa zea [6], 3.8 min.
As to `CC(C)[C@H](C(=O)O[C@H](C#N)c1cccc(Oc2ccccc2)c1)c1ccc(Cl)cc1`, the Activity in the assay on Trichoplusia ni [9], in the assay on Spodoptera exigua [12] and with Helicoverpa zea [14] was 99.9% each time. Further, the Time was determined as 5 min with Trichoplusia ni [10], 6.4 min in the assay with Spodoptera exigua [11] and 3.4 min in the assay with Helicoverpa zea [13].
